This note sets out measurements from publication PMC7785020, “A unique hormonal recognition feature of the human glucagon-like peptide-2 receptor” (Cell Research, 2020).

One assay concerns the target T1, GLP-2R (1-490)-LgBiT (Homo sapiens, UniProt O95838).
T1 construct: the C-terminus-truncated GLP-2R(1–490)-LgBiT; HA signal peptide (N); TEV site-OMBP-MBP (C); expressed in transfected cells; host or cells: HEK 293T
Nature of the assay: cAMP accumulation, truncated construct. As to conditions: Table S2, GLP-2R (1-490)-LgBiT; HEK 293T, 30 min, RT; mean ± SEM, n ≥ 3 in duplicate; read-out: cAMP accumulation Emax (% WT). The format is cell-based. The method, then:
(§1) HEK 293T cells were cultured in Dulbecco’s Modified Eagle’s Medium (DMEM) (Gibco, Waltham, USA) supplemented with 10% (v/v) fetal bovine serum (FBS) (Gibco) and 1% (v/v) sodium pyruvate (Gibco) at 37 °C, 5% CO2 in a humidified incubator. They were seeded onto 6-well cell culture plates and transiently transfected with different GLP-2R constructs using Lipofectamine 2000 transfection reagent (Invitrogen, Carlsbad, CA, USA). After 24 h, the transfected cells were seeded onto 384-well microtiter plates (3000 cells per well) in HBSS supplemented with 5 mM HEPES, 0.1% (w/v) bovine serum albumin (BSA) and 0.5 mM 3-isobutyl-1- methylxanthine, and stimulated with increasing concentrations of GLP-2 for 30 min at RT. Eu and Ulight were diluted by cAMP detection buffer and added to the plates separately to terminate the reaction. Plates were incubated at RT for 60 min before measuring the fluorescence intensity at 620 nm and […] by an EnVision multilabel plate reader (PerkinElmer, Boston, USA).

In assay [1] the target is T2, GLP-2R mutant ECL1 (poly-alanine) (Homo sapiens, UniProt O95838, D244A/DELINS236-257AAAAAAAAAAAAAAAAAAAAAA/E246A/E255A/G248A/K241A/L253A/M250A/M256A/N237A/N245A/N247A/P243A/R242A/S238A/S240A/S251A/S254A/S257A/W249A/Y236A/Y239A/Y252A).
T2 construct: WT (1–553); expressed in transfected cells; host or cells: COS-7
Nature of the assay: radioligand competition binding, ECL1 (poly-alanine). As to conditions: COS-7, ECL1 (residues 236–257) substituted by poly-alanine; [^125I]GLP-2(1–33, M10Y) 10–15 pM, 4 h, 4 °C; mean ± SEM, n ≥ 3 in duplicate. The method, then: A stepwise oxidation reaction was performed by addition of 6 aliquots of 5 µL ChloramineT (30 µL/mL) with a 1-min interval during constant stirring. The reaction was terminated by the addition of 400 µL phase A (0.1% trifluoracetic acid) before being fractionated into 1 mL volume by reverse-phase high-performance liquid chromatography (RP-HPLC, Waters 600 SimiPrep system) on a C18 column. The iodinated protein was […] by increasing concentrations of phase B (Acetonitrile + 0.1% TFA) and tested for competitive binding ability.
One day before transfection, the COS-7 cells were seeded in 75 cm^2 culture flasks (3 million cells/flask) in DMEM, containing 3.9 g/L NaHCO3 and supplemented with 10% FBS, 1% L-glutamine, 180 units/mL penicillin and 45 µg/mL streptomycin. […] Following 24-h incubation, the cells were transferred to Costa® microtiter plates (150,000 cells/well, PerkinElmer) to achieve a 5%–10% specific binding. Forty-eight hours after transfection, the cells were washed twice in binding buffer (50 mM HEPES, pH 7.4, supplemented with 1 mM CaCl2, 5 mM MgCl2 and 0.5% (w/v) BSA) and incubated for 15 min at 4 °C. […] The cells were then washed twice in binding buffer (4 °C), lysed and counted for radioactivity using a Wallac Gamma Counter (PerkinElmer).

In another assay the target is T3, GLP-2R R344^5.40A (Homo sapiens, UniProt O95838, R344A).
T3 sequence (O95838 1-553 R344A): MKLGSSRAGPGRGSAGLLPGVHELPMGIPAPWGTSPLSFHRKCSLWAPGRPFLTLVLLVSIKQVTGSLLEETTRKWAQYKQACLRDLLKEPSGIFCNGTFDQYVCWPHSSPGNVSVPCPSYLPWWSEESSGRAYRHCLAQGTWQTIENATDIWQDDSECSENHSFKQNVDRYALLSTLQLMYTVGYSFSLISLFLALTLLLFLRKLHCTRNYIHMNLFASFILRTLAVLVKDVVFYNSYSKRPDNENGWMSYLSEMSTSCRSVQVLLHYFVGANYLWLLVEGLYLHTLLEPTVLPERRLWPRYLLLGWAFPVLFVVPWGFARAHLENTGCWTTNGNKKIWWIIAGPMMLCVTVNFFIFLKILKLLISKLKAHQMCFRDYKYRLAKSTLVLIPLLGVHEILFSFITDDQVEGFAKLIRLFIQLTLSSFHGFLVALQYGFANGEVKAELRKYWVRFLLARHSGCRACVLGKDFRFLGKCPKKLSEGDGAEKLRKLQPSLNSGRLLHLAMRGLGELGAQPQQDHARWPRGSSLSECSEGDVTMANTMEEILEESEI
In words: cAMP accumulation, R344^5.40A. The format is cell-based. Particulars: Table S3, R344A; HEK 293T, 30 min, RT; mean ± SEM, n ≥ 3 in duplicate; read-out: cAMP Emax (% WT). On the procedure:
as §1

Another assay addresses T4, GLP-2R H268^3.37A (Homo sapiens, UniProt O95838, H268A).
T4 sequence (O95838 1-553 H268A): T3 sequence (O95838 1-553 R344A) with H268A, A344R
In words: cAMP accumulation, H268^3.37A. Particulars: Table S3, H268A; HEK 293T, 30 min, RT; mean ± SEM, n ≥ 3 in duplicate; read-out: cAMP Emax (% WT). The arrangement: WT (1–553); expressed in transfected cells; HEK 293T (cAMP). The format is cell-based. On the procedure: as §1

Numbering of substitutions follows the chain as printed.

T1 sequence (O95838 1-490): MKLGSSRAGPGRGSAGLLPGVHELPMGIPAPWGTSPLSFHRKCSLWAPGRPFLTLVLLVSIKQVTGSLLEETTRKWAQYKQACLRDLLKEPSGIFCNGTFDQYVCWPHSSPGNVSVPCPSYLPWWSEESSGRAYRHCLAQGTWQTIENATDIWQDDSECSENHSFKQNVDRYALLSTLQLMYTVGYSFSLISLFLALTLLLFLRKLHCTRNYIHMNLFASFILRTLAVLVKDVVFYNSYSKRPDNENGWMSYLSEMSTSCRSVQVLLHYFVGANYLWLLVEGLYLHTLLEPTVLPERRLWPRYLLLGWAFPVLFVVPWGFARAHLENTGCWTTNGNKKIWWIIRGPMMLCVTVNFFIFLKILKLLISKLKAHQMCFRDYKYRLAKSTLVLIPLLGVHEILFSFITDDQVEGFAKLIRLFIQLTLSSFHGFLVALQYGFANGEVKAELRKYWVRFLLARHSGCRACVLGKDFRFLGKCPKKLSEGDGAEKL

On to `CC[C@H](C)[C@H](NC(=O)[C@H](Cc1ccccc1)NC(=O)[C@H](CC(=O)O)NC(=O)[C@H](CCCNC(=N)N)NC(=O)[C@H](C)NC(=O)[C@H](C)NC(=O)[C@H](CC(C)C)NC(=O)[C@H](CC(N)=O)NC(=O)[C@H](CC(=O)O)NC(=O)[C@H](CC(C)C)NC(=O)[C@@H](NC(=O)[C@@H](NC(=O)[C@H](CC(N)=O)NC(=O)[C@H](CCSC)NC(=O)[C@H](CCC(=O)O)NC(=O)[C@H](CC(=O)O)NC(=O)[C@H](CO)NC(=O)[C@H](Cc1ccccc1)NC(=O)[C@H](CO)NC(=O)CNC(=O)[C@H](CC(=O)O)NC(=O)[C@H](C)NC(=O)[C@@H](N)Cc1c[nH]cn1)[C@@H](C)O)[C@@H](C)CC)C(=O)N[C@@H](CC(N)=O)C(=O)N[C@@H](Cc1c[nH]c2ccccc12)C(=O)N[C@@H](CC(C)C)C(=O)N[C@H](C(=O)N[C@@H](CCC(N)=O)C(=O)N[C@H](C(=O)N[C@@H](CCCCN)C(=O)N[C@H](C(=O)N[C@H](C(=O)N[C@@H](CC(=O)O)C(=O)O)[C@@H](C)O)[C@@H](C)CC)[C@@H](C)O)[C@@H](C)CC` [Human GLP-2 (1–33)], for which the values for the Emax at GLP-2R (1-490)-LgBiT, on GLP-2R R344^5.40A and on GLP-2R H268^3.37A were 85.3 ± 4%, 109 ± 2.8% and 118 ± 22.6%, respectively. Further, in assay [1], the “% Binding of WT” value is listed as 3.0 ± 1.1 %.
